Source: the NIST ThermoML archive (doi:10.1021/je901043q)

Assays:
[1] = 101 kPa, Liquid
[2] = xn = mol fraction of the nth substance listed; settings: 101 kPa, Liquid

CCCCn1cc[n+](C)c1.N#C[S-] [1-butyl-3-methylimidazolium thiocyanate]
[1]
Settings | mass density [kg/m3] | viscosity [mPa·s]
298.15 K | 1069.79 | 51.74
308.15 K | 1063.89 | 34.87
318.15 K | 1058.02 | 24.19
328.15 K | 1052.19 | 16.7
338.15 K | 1046.43 | 12.73
348.15 K | 1040.7 | 9.98

CCCCn1cc[n+](C)c1.N#C[S-] [1-butyl-3-methylimidazolium thiocyanate] + CCCCCCCCCO
[2]
Settings | mass density [kg/m3] | viscosity [mPa·s]
298.15 K, x1 = 0.1203 | 855.59 | 12.19
298.15 K, x1 = 0.2008 | 876.27 | 14.2
298.15 K, x1 = 0.2814 | 896.75 | 16.58
298.15 K, x1 = 0.3884 | 923.66 | 20.3
298.15 K, x1 = 0.5697 | 968.54 | 28.04
298.15 K, x1 = 0.6709 | 993.14 | 32.31
298.15 K, x1 = 0.7658 | 1015.88 | –
298.15 K, x1 = 0.8618 | 1038.46 | 41.61
298.15 K, x1 = 0.9651 | 1062.11 | 46.89
298.15 K, x1 = 1 | 1069.79 | 51.74
308.15 K, x1 = 0.1203 | 848.88 | 8.664
308.15 K, x1 = 0.2008 | 869.7 | 10.14
308.15 K, x1 = 0.2814 | 890.24 | 11.81
308.15 K, x1 = 0.3884 | 917.27 | 14.3
308.15 K, x1 = 0.5697 | 962.4 | 19.35
308.15 K, x1 = 0.6709 | 987.05 | 22.23
308.15 K, x1 = 0.7658 | 1009.89 | –
308.15 K, x1 = 0.8618 | 1032.53 | 27.8
308.15 K, x1 = 0.9651 | 1056.18 | 31.09
308.15 K, x1 = 1 | 1063.89 | 34.87
318.15 K, x1 = 0.1203 | 841.98 | 6.378
318.15 K, x1 = 0.2008 | 862.96 | 7.487
318.15 K, x1 = 0.2814 | 883.74 | 8.739
318.15 K, x1 = 0.3884 | 910.89 | 10.55
318.15 K, x1 = 0.5697 | 956.26 | 14.03
318.15 K, x1 = 0.6709 | 981.02 | 16.01
318.15 K, x1 = 0.7658 | 1003.93 | –
318.15 K, x1 = 0.8618 | 1026.62 | 19.67
318.15 K, x1 = 0.9651 | 1050.33 | 21.81
318.15 K, x1 = 1 | 1058.02 | 24.19
328.15 K, x1 = 0.1203 | 835.4 | 4.782
328.15 K, x1 = 0.2008 | 856.36 | 5.662
328.15 K, x1 = 0.2814 | 877.25 | 6.629
328.15 K, x1 = 0.3884 | 904.56 | 8.032
328.15 K, x1 = 0.5697 | 950.15 | 10.61
328.15 K, x1 = 0.6709 | 975 | 12.04
328.15 K, x1 = 0.7658 | 998.03 | –
328.15 K, x1 = 0.8618 | 1020.79 | 14.55
328.15 K, x1 = 0.9651 | 1044.5 | 16.06
328.15 K, x1 = 1 | 1052.19 | 16.7
338.15 K, x1 = 0.1203 | 828.56 | 3.695
338.15 K, x1 = 0.2008 | 849.77 | 4.408
338.15 K, x1 = 0.2814 | 870.73 | 5.139
338.15 K, x1 = 0.3884 | 898.2 | 6.237
338.15 K, x1 = 0.5697 | 944.06 | 8.26
338.15 K, x1 = 0.6709 | 969.04 | 9.33
338.15 K, x1 = 0.7658 | 992.15 | –
338.15 K, x1 = 0.8618 | 1014.99 | 11.22
338.15 K, x1 = 0.9651 | 1038.73 | 12.32
338.15 K, x1 = 1 | 1046.43 | 12.73
348.15 K, x1 = 0.1203 | 821.64 | 2.971
348.15 K, x1 = 0.2008 | 843.14 | 3.521
348.15 K, x1 = 0.2814 | 864.18 | 4.102
348.15 K, x1 = 0.3884 | 891.86 | 4.962
348.15 K, x1 = 0.5697 | 937.98 | 6.512
348.15 K, x1 = 0.6709 | 963.09 | 7.404
348.15 K, x1 = 0.7658 | 986.31 | –
348.15 K, x1 = 0.8618 | 1009.22 | 8.89
348.15 K, x1 = 0.9651 | 1032.99 | 9.74
348.15 K, x1 = 1 | 1040.7 | 9.98

CCCCCCCCCCO [decan-1-ol]
[1]
Settings | mass density [kg/m3] | viscosity [mPa·s]
298.15 K | 826.38 | 11.09
308.15 K | 819.53 | 7.632
318.15 K | 812.62 | 5.375
328.15 K | 805.61 | 3.928
338.15 K | 798.48 | 2.964
348.15 K | 791.21 | 2.399

CCCCCCCCCCO [decan-1-ol] + CCCCn1cc[n+](C)c1.N#C[S-]
[2], x2 = 0
Settings | mass density [kg/m3] | viscosity [mPa·s]
298.15 K | 826.38 | 11.09
308.15 K | 819.53 | 7.632
318.15 K | 812.62 | 5.375
328.15 K | 805.61 | 3.928
338.15 K | 798.48 | 2.964
348.15 K | 791.21 | 2.399

CCCCCCCO [heptan-1-ol]
[1]
Settings | mass density [kg/m3] | viscosity [mPa·s]
298.15 K | 818.81 | 5.851
308.15 K | 811.73 | 4.26
318.15 K | 804.55 | 3.184
328.15 K | 797.22 | 2.434
338.15 K | 789.75 | 1.9
348.15 K | 782.08 | 1.512

CCCCCCCO [heptan-1-ol] + CCCCn1cc[n+](C)c1.N#C[S-]
[2], x2 = 0
Settings | mass density [kg/m3] | viscosity [mPa·s]
298.15 K | 818.81 | 5.851
308.15 K | 811.73 | 4.26
318.15 K | 804.55 | 3.184
328.15 K | 797.22 | 2.434
338.15 K | 789.75 | 1.9
348.15 K | 782.08 | 1.512

CCCCCCCCCO [nonan-1-ol]
[1]
Settings | mass density [kg/m3] | viscosity [mPa·s]
298.15 K | 824.27 | 9.343
308.15 K | 817.36 | 6.497
318.15 K | 810.4 | 4.674
328.15 K | 803.29 | 3.452
338.15 K | 796.1 | 2.664
348.15 K | 788.72 | 2.256

CCCCCCCCCO [nonan-1-ol] + CCCCn1cc[n+](C)c1.N#C[S-]
[2], x2 = 0
Settings | mass density [kg/m3] | viscosity [mPa·s]
298.15 K | 824.27 | 9.343
308.15 K | 817.36 | 6.497
318.15 K | 810.4 | 4.674
328.15 K | 803.29 | 3.452
338.15 K | 796.1 | 2.664
348.15 K | 788.72 | 2.256

CCCCCCCCO [octan-1-ol]
[1]
Settings | mass density [kg/m3] | viscosity [mPa·s]
298.15 K | 821.61 | 7.398
308.15 K | 814.64 | 5.285
318.15 K | 807.57 | 3.887
328.15 K | 800.39 | 2.931
338.15 K | 793.09 | 2.262
348.15 K | 785.59 | 1.782

CCCCCCCCO [octan-1-ol] + CCCCn1cc[n+](C)c1.N#C[S-]
[2], x2 = 0
Settings | mass density [kg/m3] | viscosity [mPa·s]
298.15 K | 821.61 | 7.398
308.15 K | 814.64 | 5.285
318.15 K | 807.57 | 3.887
328.15 K | 800.39 | 2.931
338.15 K | 793.09 | 2.262
348.15 K | 785.59 | 1.782
